Experimental data taken from publication PMC9403976, “Elucidating the path to Plasmodium prolyl-tRNA synthetase inhibitors that overcome halofuginone resistance” (Nature Communications, 2022).
Where “and” joins values, the source holds several entries; their conditions need not be identical. Equal values may be shown once.

Columns and labels:
HuH7 cells = assay: HuH7 host hepatocyte viability (CellTiter-Fluor); type: cell-based, human; settings: for HuH7 Growth, dose-response point: single replicates
Procedure: (§1) HuH7 cells (Sigma, Cat#: 01042712, Lot:18H009) were cultured in DMEM + L-Glutamine (Gibco) supplemented with 10% (v/v) heat-inactivated FBS (Sigma) and 1% (v/v) antibiotic/antimycotic (Sigma). Hepatocyte cultures were maintained in a standard tissue culture incubator at 37 °C. Anopheles mosquitoes infected with luciferase-expressing P. berghei ANKA sporozoites were obtained from the Sporocore at the University of Georgia. Liver stage P. berghei assays were completed as previously described. Briefly, 4000 HuH7 cells were seeded into 384-well plates (Corning) 1 day prior to infection. […] Relative fluorescence and luminescence signal intensities were normalized to the negative control, 1% DMSO. EC50 values were determined using PRISM (V. 8.4.3–9.1.0, GraphPad) through fitting data to a dose-response curve.

P. falciparum Dd2-2D4 [1] = assay: NCP26 resistance selection under intermittent drug pressure; type: cell-based, Plasmodium falciparum; settings: 10^9 parasites
Procedure: In short, parasites were treated with 4x EC50 NCP26 until no parasites were detected by giemsa staining microscopy. […] This cycle was repeated for ~50 generations (~100 days), corresponding to 5–6 cycles of drug pressure.

[2] = tested on: luciferase-expressing P. berghei ANKA sporozoites; assay: P. berghei liver stage assay in HuH7 cells (luciferase, Bright-Glo); type: cell-based, Plasmodium berghei; settings: for Parasite Load, dose-response point: single replicates
Procedure: as §1, with “infection. Compounds (0–50 µM) were added in triplicate to wells before infection with 4000 P. berghei sporozoites.” for “infection.”

P. falciparum Dd2-2D4 [3] = assay: P. falciparum ABS short-term resistance susceptibility assay; type: cell-based, Plasmodium falciparum; settings: wild-type parasites under intermittent drug pressure
Procedure: Following recrudescence, sensitivity to NCP26 and halofuginone was assayed using the ABS growth assay.

P. falciparum Dd2-2D4 [4] = settings: halofuginone pressure; cited from earlier work
[5] = tested on: halofuginone-induced P. falciparum (elevated proline homeostasis); settings: within five generations (10 days); cited from earlier work
[6] = tested on: HFGR-I P. falciparum (elevated proline homeostasis and PfcProRS^L482H); settings: HFGR-I vs wild-type; cited from earlier work

O=C(NC1Cc2ccccc2C1)c1nccnc1NC(=O)N1CCCCC1 [NCP26]
EC50 (HuH7 cells; Homo sapiens, Huh-7, HuH7 cell viability, ~44 hpi): > 2500 nM
HuH7 Growth, dose-response point (HuH7 cells; Log[inhibitor] (M) -5.602): 6.24E+01 and 5.40E+01 and 5.94E+01
HuH7 Growth, dose-response point (HuH7 cells; Log[inhibitor] (M) -6.000): 6.34E+01 and 6.90E+01 and 6.75E+01
HuH7 Growth, dose-response point (HuH7 cells; Log[inhibitor] (M) -6.301): 6.99E+01 and 7.05E+01 and 6.37E+01
HuH7 Growth, dose-response point (HuH7 cells; Log[inhibitor] (M) -6.602): 7.89E+01 and 8.13E+01 and 7.81E+01
HuH7 Growth, dose-response point (HuH7 cells; Log[inhibitor] (M) -7.602): 9.65E+01 and 1.01E+02 and 8.52E+01
HuH7 Growth, dose-response point (HuH7 cells; Log[inhibitor] (M) -8.602): 9.96E+01 and 1.08E+02 and 9.36E+01
HuH7 Growth, dose-response point (HuH7 cells; Log[inhibitor] (M) -9.602): 1.01E+02 and 1.06E+02 and 1.03E+02
HuH7 Growth, dose-response point (HuH7 cells; Log[inhibitor] (M) -9.903): 1.05E+02 and 1.11E+02 and 1.08E+02
resistance to NCP26 after selection (P. falciparum Dd2-2D4 [1]; >50 generations (100 days), 2 out of 3 selections): 20-to-80 fold
generations until resistance arises (P. falciparum Dd2-2D4 [1]; intermittent drug pressure): > 50 generations
Parasite Load, dose-response point ([2]; Log[inhibitor] (M) -5.602): 4.50E-01 and 4.96E-01 and 3.82E-01
Parasite Load, dose-response point ([2]; Log[inhibitor] (M) -6.000): 6.73E-01 and 1.77E+00 and 8.83E-01
Parasite Load, dose-response point ([2]; Log[inhibitor] (M) -6.301): 2.58E+00 and 1.62E+00 and 1.38E+00
Parasite Load, dose-response point ([2]; Log[inhibitor] (M) -6.602): 2.09E+01 and 4.21E+01 and 3.50E+01
Parasite Load, dose-response point ([2]; Log[inhibitor] (M) -7.602): 1.02E+02 and 9.26E+01 and 8.31E+01
Parasite Load, dose-response point ([2]; Log[inhibitor] (M) -8.602): 9.21E+01 and 5.24E+01 and 5.53E+01
Parasite Load, dose-response point ([2]; Log[inhibitor] (M) -9.602): 7.79E+01 and 6.82E+01 and 1.12E+02
Parasite Load, dose-response point ([2]; Log[inhibitor] (M) -9.903): 5.64E+01 and 9.94E+01 and 8.54E+01
EC50 ([2]; Plasmodium berghei, Huh-7, HuH7 cells infected with sporozoites, ~44 hpi): 232 nM
induction of rapid resistance (P. falciparum Dd2-2D4 [3]): did not induce rapid resistance

O=C(CC1NCCCC1O)Cn1cnc2cc(Br)c(Cl)cc2c1=O (stereo not drawn) [Halofuginone]
generations until resistant parasites arise (P. falciparum Dd2-2D4 [4]): < 5 generations
tolerance of halofuginone-induced bulk cultures [5]: 10–20 fold
fold less sensitive (HFGR-I parasites) [6]: ~ 400 fold
